Laboratory results published in US20060199856A1, “Novel compounds as anti-inflammatory, immunomodulatory and anti-proliferatory agents” (4 SC AG, priority 2001, published 2006).

Experiments:
recombinant human DHODH = target: T1, recombinant human DHODH (Homo sapiens, UniProt Q02127); assay: Inhibition assay of DHODH activity (human enzyme); type: biochemical
T1 construct: provided by Prof; M. Löffler, Marburg, Germany (gift, not purchased)
Method: (§1) The standard assay mixture contained 50 μM decyclo ubichinone, 100 μM dihydroorotate, 60 μM 2,6-dichloroindophenol, as well as 20 mU DHODH. The volume activity of the recombinant enzyme used was 30 U/ml. Measurements were conducted in 50 mM TrisHCl (150 mM KCl, 0,1% Triton X-100, pH. 8,0) at 30° C. in a final volume of 1 ml. The components were mixed, and the reaction was started by adding dihydroorotate. The course of reaction was followed by spectrophotometrically measuring the decrease in absorption at 600 nm for 2 min.
(§2) Inhibitory studies were conducted in a standard assay with additional variable amounts of inhibitor.
(§3) These investigations were carried out with recombinant human as well as with recombinant murine DHODH provided by Prof. M. Löffler, Marburg, Germany [M. Löffler, Chem. Biol. Interact.

[1] = system: human lymphocyte cell proliferation; assay: Proliferation Assay of Human T-Cells; type: cell-based; conditions: 100 μM, activated human MNC, 48 hours
Method: Buffy coats of healthy donors were obtained from the local Red Cross; from these human mononuclear cells (MNC) were isolated using Accuspin™ System-Histopaque-1077 (Sigma) according to the protocol recommended by the manufacturer. Cells were seeded at densities of 5×10^4 or 1×10^5 cells per well in 96 well flat bottom plates in RPMI 1640 supplemented with 10% fetal calf serum, 2 mM L-glutamine and penicillin/streptomycin. Cells were activated with 1 μg/ml phytohaemagglutinin (PHA, Sigma) or 20 nM PMA (phorbol-12-myristate-13-acetate)/10 μM ionomycin (Calbiochem) and incubated with the test compounds in a final volume of 100 μl for 48 hours. Proliferation was measured using the CellTiter 96® Aqueous One Solution Cell Proliferation Assay (Promega) according to the lymphocyte assay protocol supplied by the manufacturer.

recombinant murine DHODH = target: T2, recombinant murine DHODH (Mus musculus, UniProt O35435); assay: Inhibition assay of DHODH activity (murine enzyme); type: biochemical; conditions: numeric values or words
T2 construct: provided by Prof; M. Löffler, Marburg, Germany (gift, not purchased)
T2 sequence (O35435 whole entry): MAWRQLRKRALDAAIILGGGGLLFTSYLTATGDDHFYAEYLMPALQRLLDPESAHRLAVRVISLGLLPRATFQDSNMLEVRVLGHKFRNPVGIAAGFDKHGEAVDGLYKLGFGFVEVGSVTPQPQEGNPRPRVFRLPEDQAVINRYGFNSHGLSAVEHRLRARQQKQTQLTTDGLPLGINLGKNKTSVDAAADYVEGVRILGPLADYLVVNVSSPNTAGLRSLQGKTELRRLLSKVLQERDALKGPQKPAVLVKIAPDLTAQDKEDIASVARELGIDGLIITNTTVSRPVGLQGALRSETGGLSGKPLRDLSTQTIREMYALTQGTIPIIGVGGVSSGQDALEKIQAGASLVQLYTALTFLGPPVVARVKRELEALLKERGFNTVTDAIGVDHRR
Method: as §1, §2, §3

T1 sequence (Q02127 whole entry): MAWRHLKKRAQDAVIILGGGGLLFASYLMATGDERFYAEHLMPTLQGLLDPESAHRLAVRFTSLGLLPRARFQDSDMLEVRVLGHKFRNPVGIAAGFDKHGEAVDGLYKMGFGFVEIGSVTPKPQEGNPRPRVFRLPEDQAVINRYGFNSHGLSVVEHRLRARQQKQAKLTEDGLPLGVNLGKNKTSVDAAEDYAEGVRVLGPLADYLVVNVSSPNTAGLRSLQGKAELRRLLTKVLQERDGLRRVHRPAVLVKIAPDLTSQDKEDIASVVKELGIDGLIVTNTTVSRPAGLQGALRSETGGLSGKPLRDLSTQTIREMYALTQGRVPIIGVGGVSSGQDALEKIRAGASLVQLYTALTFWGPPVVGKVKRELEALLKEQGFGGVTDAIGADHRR

Compound: O=C(O)C1=C(C(=O)Nc2ccc(-c3ccccc3)cc2)CCC1 [Compound 02, 2-(Biphenyl-4-ylcarbamoyl)-cyclopent-1-enecarboxylic acid]
- IC50 (recombinant human DHODH): 0.69 µM
- reduction of human lymphocyte cell proliferation [1]: 40%
- IC50 (recombinant murine DHODH): 4 µM
